{"source": "the supplement of paper PMC11208160", "assay": "recombinant barcode read abundance after kanamycin selection (control-corrected) (log10(CPM+1)); higher = more efficient recombination; sequences stand for … in AGTGCAGAGAAAATCGGCCAGTTTTCTCTGCCTGCAGTCCGCATGCCGT…AGATTTATGCAGCGGACTGCCTTTCTCCCAAAGTGATAAACCGGACAGTATCATGGACCGGTTTTCCCGGTAATCCGTATTTGCAAGGTTGGTTTCACT; site = the 11-nt target", "outline": "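Recombination efficiency draws on barcodes counted at recombinant junctions in a pooled E. coli screen of targets paired with IS621 bridge RNA target-binding loops. The counts were converted to counts per million, averaged and corrected against the chloramphenicol/ampicillin LB agar control, then reported as log10(CPM+1). Selection plates held chloramphenicol/ampicillin/kanamycin with 0.1 mM IPTG, with two replicates per condition.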", "data": [{"sequence": "CTACGGTCTTGGGTTCTAACCTGTTGCAC (site CTACGATCTGT)", "values": [{"measurement": "recombinant barcode read abundance (log10)", "value": 0.256}]}, {"sequence": "CTACGGTCTTGGGTTCTAACCTGTTGCAC (site CTACGCTCTGT)", "values": [{"measurement": "recombinant barcode read abundance (log10)", "value": 0.238}]}, {"sequence": "CTACGGTCTTGGGTTCTAACCTGTTGCAC (site CTACGGTCTGT)", "values": [{"measurement": "recombinant barcode read abundance (log10)", "value": 0.404}]}, {"sequence": "CTACGGTCTTGGGTTCTAACCTGTTGCAC (site CTACGTTCTGT)", "values": [{"measurement": "recombinant barcode read abundance (log10)", "value": 0.0783}]}, {"sequence": "CTACGTCCTTGGGTTCTAACCTGTTGCTC (site CTACGTCCTAA)", "values": [{"measurement": "recombinant barcode read abundance (log10)", "value": 0.191}]}, {"sequence": "CTACGTCCTTGGGTTCTAACCTGTTGCTC (site CTACGTCCTCA)", "values": [{"measurement": "recombinant barcode read abundance (log10)", "value": 0.942}]}, {"sequence": "CTACGTCCTTGGGTTCTAACCTGTTGCTC (site CTACGTCCTGA)", "values": [{"measurement": "recombinant barcode read abundance (log10)", "value": 0.91}]}, {"sequence": "CTACGTCCTTGGGTTCTAACCTGTTGCTC (site CTACGTCCTTA)", "values": [{"measurement": "recombinant barcode read abundance (log10)", "value": 0.0289}]}, {"sequence": "CTACGTTCTTGGGTTCTAACCTGTTGCAC (site CTACGATCTGT)", "values": [{"measurement": "recombinant barcode read abundance (log10)", "value": 0.0857}]}, {"sequence": "CTACGTTCTTGGGTTCTAACCTGTTGCAC (site CTACGCTCTGT)", "values": [{"measurement": "recombinant barcode read abundance (log10)", "value": 0}]}, {"sequence": "CTACGTTCTTGGGTTCTAACCTGTTGCAC (site CTACGGTCTGT)", "values": [{"measurement": "recombinant barcode read abundance (log10)", "value": 0.0816}]}, {"sequence": "CTACGTTCTTGGGTTCTAACCTGTTGCAC (site CTACGTTCTGT)", "values": [{"measurement": "recombinant barcode read abundance (log10)", "value": 1.1}]}, {"sequence": "CTACTAGCTTGGGTTCTAACCTGTTGCAG (site CTACTAGCTAT)", "values": [{"measurement": "recombinant barcode read abundance (log10)", "value": 0.173}]}, {"sequence": "CTACTAGCTTGGGTTCTAACCTGTTGCAG (site CTACTAGCTCT)", "values": [{"measurement": "recombinant barcode read abundance (log10)", "value": 2.5}]}, {"sequence": "CTACTAGCTTGGGTTCTAACCTGTTGCAG (site CTACTAGCTGT)", "values": [{"measurement": "recombinant barcode read abundance (log10)", "value": 0.0122}]}, {"sequence": "CTACTAGCTTGGGTTCTAACCTGTTGCAG (site CTACTAGCTTT)", "values": [{"measurement": "recombinant barcode read abundance (log10)", "value": 0.0541}]}, {"sequence": "CTACTAGCTTGGGTTCTAACCTGTTGCAT (site CTACTAGCTAT)", "values": [{"measurement": "recombinant barcode read abundance (log10)", "value": 1.18}]}, {"sequence": "CTACTAGCTTGGGTTCTAACCTGTTGCAT (site CTACTAGCTCT)", "values": [{"measurement": "recombinant barcode read abundance (log10)", "value": 0.115}]}, {"sequence": "CTACTAGCTTGGGTTCTAACCTGTTGCAT (site CTACTAGCTGT)", "values": [{"measurement": "recombinant barcode read abundance (log10)", "value": 0.167}]}, {"sequence": "CTACTAGCTTGGGTTCTAACCTGTTGCAT (site CTACTAGCTTT)", "values": [{"measurement": "recombinant barcode read abundance (log10)", "value": 0.139}]}, {"sequence": "CTAGAAGCTTGGGTTCTAACCTGTTGCGT (site CTAGAAGCTAC)", "values": [{"measurement": "recombinant barcode read abundance (log10)", "value": 2.52}]}, {"sequence": "CTAGAAGCTTGGGTTCTAACCTGTTGCGT (site CTAGGAGCTAC)", "values": [{"measurement": "recombinant barcode read abundance (log10)", "value": 1.05}]}, {"sequence": "CTAGACTCTTGGGTTCTAACCTGTTGCAA (site CTAGACTCTAT)", "values": [{"measurement": "recombinant barcode read abundance (log10)", "value": 0.644}]}, {"sequence": "CTAGACTCTTGGGTTCTAACCTGTTGCAA (site CTAGACTCTCT)", "values": [{"measurement": "recombinant barcode read abundance (log10)", "value": 0.287}]}, {"sequence": "CTAGACTCTTGGGTTCTAACCTGTTGCAA (site CTAGACTCTGT)", "values": [{"measurement": "recombinant barcode read abundance (log10)", "value": 0.0566}]}, {"sequence": "CTAGACTCTTGGGTTCTAACCTGTTGCAA (site CTAGACTCTTT)", "values": [{"measurement": "recombinant barcode read abundance (log10)", "value": 2}]}, {"sequence": "CTAGACTCTTGGGTTCTAACCTGTTGCTC (site CTAGACTCTAA)", "values": [{"measurement": "recombinant barcode read abundance (log10)", "value": 0.0434}]}, {"sequence": "CTAGACTCTTGGGTTCTAACCTGTTGCTC (site CTAGACTCTCA)", "values": [{"measurement": "recombinant barcode read abundance (log10)", "value": 0.0281}]}, {"sequence": "CTAGACTCTTGGGTTCTAACCTGTTGCTC (site CTAGACTCTGA)", "values": [{"measurement": "recombinant barcode read abundance (log10)", "value": 2.84}]}, {"sequence": "CTAGACTCTTGGGTTCTAACCTGTTGCTC (site CTAGACTCTTA)", "values": [{"measurement": "recombinant barcode read abundance (log10)", "value": 0.275}]}, {"sequence": "CTAGACTCTTGGGTTCTAACCTGTTGCTT (site CTAGACTCTAA)", "values": [{"measurement": "recombinant barcode read abundance (log10)", "value": 2.89}]}, {"sequence": "CTAGACTCTTGGGTTCTAACCTGTTGCTT (site CTAGACTCTCA)", "values": [{"measurement": "recombinant barcode read abundance (log10)", "value": 0.304}]}, {"sequence": "CTAGACTCTTGGGTTCTAACCTGTTGCTT (site CTAGACTCTGA)", "values": [{"measurement": "recombinant barcode read abundance (log10)", "value": 0.0758}]}, {"sequence": "CTAGACTCTTGGGTTCTAACCTGTTGCTT (site CTAGACTCTTA)", "values": [{"measurement": "recombinant barcode read abundance (log10)", "value": 0.261}]}, {"sequence": "CTAGATGCTTGGGTTCTAACCTGTTGCGA (site AGTTCATCTAT)", "values": [{"measurement": "recombinant barcode read abundance (log10)", "value": 0.0418}]}, {"sequence": "CTAGATGCTTGGGTTCTAACCTGTTGCGA (site CTAGATGCTTC)", "values": [{"measurement": "recombinant barcode read abundance (log10)", "value": 1.94}]}, {"sequence": "CTAGATTCTTGGGTTCTAACCTGTTGCAT (site ACGATAACTTG)", "values": [{"measurement": "recombinant barcode read abundance (log10)", "value": 0.0921}]}, {"sequence": "CTAGATTCTTGGGTTCTAACCTGTTGCAT (site CTAGATTCTAT)", "values": [{"measurement": "recombinant barcode read abundance (log10)", "value": 2.61}]}, {"sequence": "CTAGCAACTTGGGTTCTAACCTGTTGCTT (site CTAGCAACTAA)", "values": [{"measurement": "recombinant barcode read abundance (log10)", "value": 0.26}]}, {"sequence": "CTAGCAACTTGGGTTCTAACCTGTTGCTT (site CTAGCAGCTAT)", "values": [{"measurement": "recombinant barcode read abundance (log10)", "value": 0.124}]}, {"sequence": "CTAGCAGCTTGGGTTCTAACCTGTTGCAT (site CTAGCAACTAA)", "values": [{"measurement": "recombinant barcode read abundance (log10)", "value": 0.197}]}, {"sequence": "CTAGCAGCTTGGGTTCTAACCTGTTGCAT (site CTAGCAGCTAT)", "values": [{"measurement": "recombinant barcode read abundance (log10)", "value": 0.434}]}, {"sequence": "CTAGCCACTTGGGTTCTAACCTGTTGCTA (site CTAGCCACTTA)", "values": [{"measurement": "recombinant barcode read abundance (log10)", "value": 1.01}]}, {"sequence": "CTAGCCACTTGGGTTCTAACCTGTTGCTA (site CTAGCGACTCA)", "values": [{"measurement": "recombinant barcode read abundance (log10)", "value": 0.38}]}, {"sequence": "CTAGGAACTTGGGTTCTAACCTGTTGCTA (site AGGTTCCCTCC)", "values": [{"measurement": "recombinant barcode read abundance (log10)", "value": 0.454}]}, {"sequence": "CTAGGAACTTGGGTTCTAACCTGTTGCTA (site CTAGGAACTTA)", "values": [{"measurement": "recombinant barcode read abundance (log10)", "value": 0.635}]}, {"sequence": "CTAGGAGCTTGGGTTCTAACCTGTTGCTC (site CTAGGAGCTAA)", "values": [{"measurement": "recombinant barcode read abundance (log10)", "value": 0.241}]}, {"sequence": "CTAGGAGCTTGGGTTCTAACCTGTTGCTC (site CTAGGAGCTCA)", "values": [{"measurement": "recombinant barcode read abundance (log10)", "value": 0.222}]}, {"sequence": "CTAGGAGCTTGGGTTCTAACCTGTTGCTC (site CTAGGAGCTGA)", "values": [{"measurement": "recombinant barcode read abundance (log10)", "value": 0.885}]}, {"sequence": "CTAGGAGCTTGGGTTCTAACCTGTTGCTC (site CTAGGAGCTTA)", "values": [{"measurement": "recombinant barcode read abundance (log10)", "value": 0.126}]}, {"sequence": "CTAGTGACTTGGGTTCTAACCTGTTGCGA (site CTAGTGACTAC)", "values": [{"measurement": "recombinant barcode read abundance (log10)", "value": 0.0588}]}, {"sequence": "CTAGTGACTTGGGTTCTAACCTGTTGCGA (site CTAGTGACTCC)", "values": [{"measurement": "recombinant barcode read abundance (log10)", "value": 0.576}]}, {"sequence": "CTAGTGACTTGGGTTCTAACCTGTTGCGA (site CTAGTGACTGC)", "values": [{"measurement": "recombinant barcode read abundance (log10)", "value": 0.0599}]}, {"sequence": "CTAGTGACTTGGGTTCTAACCTGTTGCGA (site CTAGTGACTTC)", "values": [{"measurement": "recombinant barcode read abundance (log10)", "value": 1.99}]}, {"sequence": "CTAGTGACTTGGGTTCTAACCTGTTGCGG (site CTAGTGACTAC)", "values": [{"measurement": "recombinant barcode read abundance (log10)", "value": 0.0948}]}, {"sequence": "CTAGTGACTTGGGTTCTAACCTGTTGCGG (site CTAGTGACTCC)", "values": [{"measurement": "recombinant barcode read abundance (log10)", "value": 1.74}]}, {"sequence": "CTAGTGACTTGGGTTCTAACCTGTTGCGG (site CTAGTGACTGC)", "values": [{"measurement": "recombinant barcode read abundance (log10)", "value": 0.141}]}, {"sequence": "CTAGTGACTTGGGTTCTAACCTGTTGCGG (site CTAGTGACTTC)", "values": [{"measurement": "recombinant barcode read abundance (log10)", "value": 0.352}]}, {"sequence": "CTAGTGTCTTGGGTTCTAACCTGTTGCAC (site CTAGTCACTGT)", "values": [{"measurement": "recombinant barcode read abundance (log10)", "value": 0.198}]}, {"sequence": "CTAGTGTCTTGGGTTCTAACCTGTTGCAC (site CTAGTGTCTGT)", "values": [{"measurement": "recombinant barcode read abundance (log10)", "value": 1.88}]}, {"sequence": "CTAGTGTCTTGGGTTCTAACCTGTTGCTA (site CTAGTGTCTTA)", "values": [{"measurement": "recombinant barcode read abundance (log10)", "value": 2.72}]}, {"sequence": "CTAGTGTCTTGGGTTCTAACCTGTTGCTA (site GTAGTGTCTTA)", "values": [{"measurement": "recombinant barcode read abundance (log10)", "value": 0.0109}]}, {"sequence": "CTATAGGCTTGGGTTCTAACCTGTTGCCT (site ATATACGCTAG)", "values": [{"measurement": "recombinant barcode read abundance (log10)", "value": 0.0845}]}, {"sequence": "CTATAGGCTTGGGTTCTAACCTGTTGCCT (site CTATAGGCTAG)", "values": [{"measurement": "recombinant barcode read abundance (log10)", "value": 0.159}]}, {"sequence": "CTATATACTTGGGTTCTAACCTGTTGCCA (site CTATATACTTG)", "values": [{"measurement": "recombinant barcode read abundance (log10)", "value": 0.154}]}, {"sequence": "CTATATACTTGGGTTCTAACCTGTTGCCA (site CTGTATACTTG)", "values": [{"measurement": "recombinant barcode read abundance (log10)", "value": 0}]}]}
